For the assay, the system named is expert panel. Put plainly: Tasting of ethanol and HMF-containing mixtures by an expert panel (5% sucrose solution). Type of assay: in vivo, human. The text has this: The test matrix used was a 5% sucrose solution having alcohol contents of 4 and 10% by volume respectively. Added to each of the two sucrose solutions were • a) nothing, • b) 2 ppm of HMF87 from Example 1, • c) 2 ppm of HMF99 from Example 1, • d) 5 ppm of HMF87 from Example 1 and • e) 5 ppm of HMF99 from Example 1.
All of these solutions were tasted by an expert panel consisting of five experts in each case.

The values below come from patent publication US8435586B2, “Use of alkoxylated flavones to intensify the sensory impression of alcohol” (Symrise AG, priority 2007, dated 2013).

With `COc1ccc(-c2oc3c(OC)c(OC)c(OC)c(OC)c3c(=O)c2OC)cc1OC` [HMF99, 3,3′,4′,5,6,7,8-heptamethoxyflavone], the “difference between HMF87 and HMF99 in intensification of the alcohol impression” value (2 and 5 ppm, 4 and 10% by volume alcohol) is given as “no significant difference”.
On to `COc1ccc(-c2oc3c(OC)c(OC)c(OC)c(OC)c3c(=O)c2OC)cc1OC` [HMF, 3,3′,4′,5,6,7,8-heptamethoxyflavone], for which the “intensification of the alcohol impression compared with the samples without HMF” value (2 or 5 ppm of HMF87 or HMF99, 4 and 10% by volume alcohol, five experts) is given as “highly significant intensification of the alcohol impression”.
